{"source": "patent US20240165112A1", "about": "“THERAPY FOR THE TREATMENT OF CANCER” (Bristol-Myers Squibb Company, priority 2022, published 2024)", "key": {"[1]": {"experiment": "Plasma concentration of Compound 1 at the 400 mg dose", "format": "in vivo", "conditions": "400 mg dose in human"}, "[2]": {"tested_on": "COL1A1, PAI-1, TNC, LRRC15 transcripts in A549 lung cancer cells", "experiment": "TGF-β-induced transcripts in A549 tumor cells (RT-PCR)", "format": "cell-based, human", "experimental": "Indicated gene transcripts were assessed by RT-PCR relative to GAPDH. Data were normalized to expression after TGF-β-treatment in the presence of only DMSO. Data are presented as mean of 3 biological replicates, and error bars indicate standard deviation. The graphs are representative of at least 2 independent experiments. *P<0.05; ** P<0.01, ***P<0.001; ****P<0.0001 by student's t-test.\nCells were directly lysed in Qiagen™ Buffer RLT Plus with 1% 2-Mercaptoethanol added. Total RNA from tumor samples and cell lines was isolated using Qiagen™ AllPrep® DNA/RNA 96 Kit according to manufacturer's protocol. Isolated RNA was analyzed with NanoDrop™ ONE Spectrophotometer for concentration. The RNA integrity was also analyzed on Agilent TapeStation 4200.\nComplimentary deoxyribonucleic acid (cDNA) was prepared by using Invitrogen™ SuperScript™ III First-Strand Synthesis SuperMix for qRT-PCR. Up to 1 μg of RNA was prepared according to manufacturer's protocol, using Applied Biosystems™ Veriti™ 96-well thermal cycler. The reverse transcription (RT) program used for cDNA synthesis: • 1. 25° C., 10 minutes • 2. 50° C., 30 minutes • 3. 85° C., 5 minutes • 4. Add E. Coli RNase H, 37° C., 20 minutes • 5. Hold at 4° C. Quantitative Reverse Transcription Polymerase Chain Reaction (qRT-PCR).\nThe cDNA was diluted 1:3 fold in nuclease-free water for quantitative polymerase chain reaction (qPCR) setup. Human and mouse TaqMan™ assays for targeted genes were ordered through Applied Biosystems™. TaqMan™ assay selection was based on manufacturer's recommendation. The qRT-PCR was set up using Applied Biosystems™ TaqMan™ Fast Advanced Master Mix according to manufacturer's protocol. The qRT-PCR was run on QuantStudio™ 12 Flex with fast run mode: • 1. 95° C., 20 seconds • 2. 95° C., 1 second • 3. 60° C., 20 seconds • 4. Repeat steps 2-3, 39 times\nThe qPCR data was analyzed, and all cycle threshold (Ct) values were normalized to glyceraldehyde-3-phosphate dehydrogenase (GAPDH) (ΔCt). Analysis was plotted and presented using GraphPad Prism (GraphPad, Version 8.4.1, San Diego, CA).\nThe RNA expression was assessed 24 hours after TGF-β treatment."}, "[3]": {"tested_on": "Eleven patient-derived tumor organoids", "experiment": "3D clonogenic assay, summary over the organoid panel", "format": "cell-based, human", "conditions": "for median percent colony reduction relative to DMSO: 11 organoid cultures", "experimental": "Five tumor cell lines (4T1.2, A549, EMT6, NCI-H460, and HT29) were treated with a range of paclitaxel or 5-FU concentrations in the presence of dimethlylsulfoxide (DMSO), 5 μM Compound 1, or 20 μM Compound 1. Cells were imaged 4 days after treatment and percent confluence was assessed by image quantification. EC50 values for cell confluence were used to assess chemotherapy potency. Eleven patient-derived tumor organoids (MAXFTN449, MAXFTN2990, PAXF1657, PAXF2131, CXF1256, CXF2129, CXF2061, LXFE2478, LXFE690, LXFA677, LXFA644) were seeded in a 3D matrix and treated with a range of paclitaxel, 5-FU, SN38, Gemcitabine, oxaliplatin, and carboplatin concentrations in the presence of DMSO, 5 μM Compound 1, or 20 μM Compound 1. After 8 to 13 days in culture, colonies were stained, imaged, and counted. A dose response curve was generated for chemotherapy alone or chemotherapy in combination with 5 or 20 μM Compound 1. Combination activity was defined as a percentage of the area under the chemotherapy dose response curve (cAUC) for Compound 1 combination groups compared to the cAUC of chemotherapy alone.\nThe clonogenic assay was carried out in a 96 well plate format using ultra low attachment plates. For each test, plates were prepared as follows: each test well contained a layer of semi-solid medium with tumor cells (50 μL), and a second layer of medium supernatant with or without test compound (100 μL). The cell layer consisted of […] to 12.5×10^3 tumor cells per well, which were seeded in 50 μL/well cell culture medium (IMDM, supplemented with 20% (v/v) fetal bovine serum, 50 μg/mL gentamicin, and 0.4% (w/v) agar). After 24 hours, the soft-agar layer was covered with 90 μL of the same culture medium without agar, and 10 μL of control medium or test compound after serial dilution in DMSO for the duration of the experiment (continuous exposure, 100 μL drug overlay).\nAfter 8 to 13 days in culture, colonies were stained, imaged, and counted."}, "[4]": {"tested_on": "primary human macrophages", "experiment": "Primary macrophage viability (Cell Titer Glo)", "format": "cell-based", "conditions": "Cell Titer Glo at the end of the experiment; any of the doses tested", "experimental": "FIG. 12 illustrates the effect of Compound 1 on Primary Macrophage Viability. Primary human monocytes were differentiated into macrophages and treated with varying doses of DMSO or Compound 1. Cell viability was assessed by Cell Titer Glo 24 hours after drug treatment. Viability in drug treatment groups was normalized to the equivalent DMSO concentration. Data are plotted as the mean and standard deviation of 3 donors and representative of 2 independent experiments. Abbreviations: DMSO, dimethyl sulfoxide.\nPeripheral blood mononuclear cells (PBMCs) were isolated from human blood using aseptic conditions. CD14+ monocytes were enriched from PBMC using Miltenyi Biotech kit (using CD14 microbeads). Fresh CD14+ monocytes were differentiated to macrophages using complete RPMI1640 medium with M-CSF recombinant human protein at the final concentration of 50 ng/mL. At Day 3-4, media containing M-CSF was added on monocytes/macrophages and incubated for 6-7 days in 5% CO2 incubator at 37° C. 10 mL 10 mM EDTA or Detachin was added to the culture dish containing macrophages, and let sit for 20-30 minutes, or until cells dissociate from the dish at room temperature. Macrophages were collected and washed in a 50 mL conical tube and centrifuged at 300-400×g for 4-5 minutes at room temperature. […]"}, "[5]": {"conditions": "30 μM Compound 1, 10 ng/mL TGF-β, 24 hours"}}, "data": [{"compound": "C[C@@H]1CC[C@@H](Nc2nc(NC(C)(C)C)ncc2C(N)=O)C[C@H]1O", "note": "[Compound 1, 2-(tert-butylamino)-4-((1R,3R,4R)-3-hydroxy-4-methylcyclohexylamino)-pyrimidine-5-carboxamide]", "values": [{"measurement": "plasma concentration at Cavg", "setting": "[1]", "result": 4, "unit": "µM"}, {"measurement": "Cmax", "setting": "[1]; plasma", "result": 14, "unit": "µM"}, {"measurement": "COL1A1 reduced relative to TGF-β stimulation in the presence of DMSO alone", "setting": "[2]; [5]", "result": 56, "unit": "%"}, {"measurement": "PAI-1 reduced relative to TGF-β stimulation in the presence of DMSO alone", "setting": "[2]; [5]", "result": 64, "unit": "%"}, {"measurement": "TNC reduced relative to TGF-β stimulation in the presence of DMSO alone", "setting": "[2]; [5]", "result": 90, "unit": "%"}, {"measurement": "Tenascin C upregulation with TGF-β treatment", "setting": "[2]; Compound 1 at 30 μM, 15 μM or 5 μM", "result": "inhibited by all doses of Compound 1 tested"}, {"measurement": "organoid cultures with an average percent colony reduction greater than 20%", "setting": "[3]; 5 μM Compound 1", "result": "8 out of 11"}, {"measurement": "median percent colony reduction relative to DMSO", "setting": "[3]; 5 μM Compound 1", "result": 39, "unit": "%"}, {"measurement": "organoid cultures with an average percent colony reduction greater than 20%", "setting": "[3]; 20 μM Compound 1", "result": "10 out of 11"}, {"measurement": "median percent colony reduction relative to DMSO", "setting": "[3]; 20 μM Compound 1", "result": 34, "unit": "%"}, {"measurement": "Macrophage cell viability relative to DMSO", "setting": "[4]", "result": "No change in cell viability"}]}]}
